# Organism: Rattus norvegicus
# Assay: Open TG-GATES - Regimen: Daily Repeat
# Assay type: toxicity, organism-based, Sprague-Dawley
# Parameters: regimen Daily Repeat, gender Male, age 6 weeks
# Conditions: in vivo, po, 300 mg/kg, route gavage, dose level High; for APTT / Bas / Eos / Fbg / Hb / Ht / Lym / MCH / MCHC / MCV / Mono / Neu / PT / Plat / RBC / Ret / WBC: tissue Blood; for KIDNEY_L / KIDNEY_R / KIDNEY_TOTAL: tissue Kidney; for LIVER: tissue Liver; for A/G / ALP / ALT / AST / BUN / CRE / Ca / Cl / DBIL / GLC / IP / K / LDH / Na / PL / RALB / TBIL / TC / TG / TP / gamma-GTP: tissue Plasma
smiles,measurement,setting,value
CCCNC(=O)NS(=O)(=O)c1ccc(Cl)cc1 [CHLORPROPAMIDE],TERMINAL_BW,"72 h, time 3 day",191.6 g
same,APTT,"72 h, time 3 day",18.9 s
same,Bas,"72 h, time 3 day",0.2%
same,Eos,"72 h, time 3 day",1%
same,Fbg,"72 h, time 3 day",316.6 mg/dL
same,Hb,"72 h, time 3 day",13.3 g/dL
same,Ht,"72 h, time 3 day",39.6%
same,Lym,"72 h, time 3 day",80.6%
same,MCH,"72 h, time 3 day",20.6 pg
same,MCHC,"72 h, time 3 day",33.5%
same,MCV,"72 h, time 3 day",61.6 fL
same,Mono,"72 h, time 3 day",1.8%
same,Neu,"72 h, time 3 day",15.2%
same,PT,"72 h, time 3 day",16.2 s
same,Plat,"72 h, time 3 day",110.6 x10_4/uL
same,RBC,"72 h, time 3 day",645.4 x10_4/ul
same,Ret,"72 h, time 3 day",3.8%
same,WBC,"72 h, time 3 day",88.9 x10_2/uL
same,KIDNEY_L,"72 h, time 3 day",0.8 g
same,KIDNEY_R,"72 h, time 3 day",0.8 g
same,KIDNEY_TOTAL,"72 h, time 3 day",1.7 g
same,LIVER,"72 h, time 3 day",8.1 g
same,A/G,"72 h, time 3 day",0.9
same,ALP,"72 h, time 3 day",1546.2 IU/L
same,ALT,"72 h, time 3 day",46 IU/L
same,AST,"72 h, time 3 day",64.2 IU/L
same,BUN,"72 h, time 3 day",14.8 mg/dL
same,CRE,"72 h, time 3 day",0.2 mg/dL
same,Ca,"72 h, time 3 day",10.6 mg/dL
same,Cl,"72 h, time 3 day",109.8 meq/L
same,DBIL,"72 h, time 3 day",0.002 mg/dL
same,GLC,"72 h, time 3 day",166 mg/dL
same,IP,"72 h, time 3 day",6.6 mg/dL
same,K,"72 h, time 3 day",3.5 meq/L
same,LDH,"72 h, time 3 day",63.2 IU/L
same,Na,"72 h, time 3 day",142.4 meq/L
same,PL,"72 h, time 3 day",154.8 mg/dL
same,RALB,"72 h, time 3 day",2.6 g/dL
same,TBIL,"72 h, time 3 day",0.02 mg/dL
same,TC,"72 h, time 3 day",84.2 mg/dL
same,TG,"72 h, time 3 day",55.6 mg/dL
same,TP,"72 h, time 3 day",5.7 g/dL
same,gamma-GTP,"72 h, time 3 day",1.2 IU/L
same,TERMINAL_BW,"[…], time 7 day",213.5 g
same,TERMINAL_BW,"[…], time 14 day",232.5 g
same,TERMINAL_BW,"[…], time 28 day",294.1 g
same,APTT,"[…], time 7 day",20.1 s
same,Bas,"[…], time 7 day",0%
same,Eos,"[…], time 7 day",1%
same,Fbg,"[…], time 7 day",286.8 mg/dL
same,Hb,"[…], time 7 day",13.1 g/dL
same,Ht,"[…], time 7 day",40.1%
same,Lym,"[…], time 7 day",81%
same,MCH,"[…], time 7 day",20.3 pg
same,MCHC,"[…], time 7 day",32.8%
same,MCV,"[…], time 7 day",62 fL
same,Mono,"[…], time 7 day",2.6%
same,Neu,"[…], time 7 day",14.6%
same,PT,"[…], time 7 day",16.4 s
same,Plat,"[…], time 7 day",111.5 x10_4/uL
same,RBC,"[…], time 7 day",647.8 x10_4/ul
same,Ret,"[…], time 7 day",5.6%
same,WBC,"[…], time 7 day",95.7 x10_2/uL
same,APTT,"[…], time 14 day",33.4 s
same,Bas,"[…], time 14 day",0%
same,Eos,"[…], time 14 day",0.8%
same,Fbg,"[…], time 14 day",283.2 mg/dL
same,Hb,"[…], time 14 day",14.4 g/dL
same,Ht,"[…], time 14 day",43.1%
same,Lym,"[…], time 14 day",83.6%
same,MCH,"[…], time 14 day",20.3 pg
same,MCHC,"[…], time 14 day",33.5%
same,MCV,"[…], time 14 day",60.5 fL
same,Mono,"[…], time 14 day",2.2%
same,Neu,"[…], time 14 day",12%
same,PT,"[…], time 14 day",16.6 s
same,Plat,"[…], time 14 day",105.9 x10_4/uL
same,RBC,"[…], time 14 day",712.6 x10_4/ul
same,Ret,"[…], time 14 day",3.8%
same,WBC,"[…], time 14 day",79.2 x10_2/uL
same,APTT,"[…], time 28 day",22.6 s
same,Bas,"[…], time 28 day",0.2%
same,Eos,"[…], time 28 day",0.8%
same,Fbg,"[…], time 28 day",282.6 mg/dL
same,Hb,"[…], time 28 day",14.5 g/dL
same,Ht,"[…], time 28 day",44.1%
same,Lym,"[…], time 28 day",78.2%
same,MCH,"[…], time 28 day",18.5 pg
same,MCHC,"[…], time 28 day",32.9%
same,MCV,"[…], time 28 day",56.1 fL
same,Mono,"[…], time 28 day",2.8%
same,Neu,"[…], time 28 day",16.8%
same,PT,"[…], time 28 day",16.7 s
same,Plat,"[…], time 28 day",93.9 x10_4/uL
same,RBC,"[…], time 28 day",786 x10_4/ul
same,Ret,"[…], time 28 day",2.3%
same,WBC,"[…], time 28 day",126.5 x10_2/uL
same,KIDNEY_L,"[…], time 7 day",0.9 g
same,KIDNEY_R,"[…], time 7 day",0.9 g
same,KIDNEY_TOTAL,"[…], time 7 day",1.8 g
same,KIDNEY_L,"[…], time 14 day",1 g
same,KIDNEY_R,"[…], time 14 day",1 g
same,KIDNEY_TOTAL,"[…], time 14 day",2.1 g
same,KIDNEY_L,"[…], time 28 day",1.2 g
same,KIDNEY_R,"[…], time 28 day",1.2 g
same,KIDNEY_TOTAL,"[…], time 28 day",2.4 g
same,LIVER,"[…], time 7 day",9.7 g
same,LIVER,"[…], time 14 day",11 g
same,LIVER,"[…], time 28 day",13.2 g
same,A/G,"[…], time 7 day",0.9
same,ALP,"[…], time 7 day",1590.8 IU/L
same,ALT,"[…], time 7 day",48 IU/L
same,AST,"[…], time 7 day",69.2 IU/L
same,BUN,"[…], time 7 day",18.6 mg/dL
same,CRE,"[…], time 7 day",0.2 mg/dL
same,Ca,"[…], time 7 day",10.9 mg/dL
same,Cl,"[…], time 7 day",110.8 meq/L
same,DBIL,"[…], time 7 day",0.004 mg/dL
same,GLC,"[…], time 7 day",187 mg/dL
same,IP,"[…], time 7 day",7.6 mg/dL
same,K,"[…], time 7 day",3.3 meq/L
same,LDH,"[…], time 7 day",68.4 IU/L
same,Na,"[…], time 7 day",145.2 meq/L
same,PL,"[…], time 7 day",165.2 mg/dL
same,RALB,"[…], time 7 day",2.6 g/dL
same,TBIL,"[…], time 7 day",0.016 mg/dL
same,TC,"[…], time 7 day",82.2 mg/dL
same,TG,"[…], time 7 day",60.2 mg/dL
same,TP,"[…], time 7 day",5.7 g/dL
same,gamma-GTP,"[…], time 7 day",1 IU/L
same,A/G,"[…], time 14 day",0.8
same,ALP,"[…], time 14 day",1780 IU/L
same,ALT,"[…], time 14 day",51 IU/L
same,AST,"[…], time 14 day",72.2 IU/L
same,BUN,"[…], time 14 day",17.6 mg/dL
same,CRE,"[…], time 14 day",0.2 mg/dL
same,Ca,"[…], time 14 day",10.3 mg/dL
same,Cl,"[…], time 14 day",111.2 meq/L
same,DBIL,"[…], time 14 day",0.004 mg/dL
same,GLC,"[…], time 14 day",182.6 mg/dL
same,IP,"[…], time 14 day",7.8 mg/dL
same,K,"[…], time 14 day",3.2 meq/L
same,LDH,"[…], time 14 day",85 IU/L
same,Na,"[…], time 14 day",145.2 meq/L
same,PL,"[…], time 14 day",158 mg/dL
same,RALB,"[…], time 14 day",2.7 g/dL
same,TBIL,"[…], time 14 day",0.012 mg/dL
same,TC,"[…], time 14 day",75 mg/dL
same,TG,"[…], time 14 day",72.4 mg/dL
same,TP,"[…], time 14 day",5.9 g/dL
same,gamma-GTP,"[…], time 14 day",1 IU/L
same,A/G,"[…], time 28 day",0.8
same,ALP,"[…], time 28 day",1231.8 IU/L
same,ALT,"[…], time 28 day",47.8 IU/L
same,AST,"[…], time 28 day",70 IU/L
same,BUN,"[…], time 28 day",20 mg/dL
same,CRE,"[…], time 28 day",0.2 mg/dL
same,Ca,"[…], time 28 day",10.5 mg/dL
same,Cl,"[…], time 28 day",110.4 meq/L
same,DBIL,"[…], time 28 day",0.002 mg/dL
same,GLC,"[…], time 28 day",196.4 mg/dL
same,IP,"[…], time 28 day",6.7 mg/dL
same,K,"[…], time 28 day",3 meq/L
same,LDH,"[…], time 28 day",67.4 IU/L
same,Na,"[…], time 28 day",146.4 meq/L
same,PL,"[…], time 28 day",148.6 mg/dL
same,RALB,"[…], time 28 day",2.7 g/dL
same,TBIL,"[…], time 28 day",0.008 mg/dL
same,TC,"[…], time 28 day",65.6 mg/dL
same,TG,"[…], time 28 day",89.4 mg/dL
same,TP,"[…], time 28 day",6 g/dL
same,gamma-GTP,"[…], time 28 day",1.2 IU/L

# From ChEMBL document CHEMBL3885861, “Open TG-GATES”
